From PMC10350919 (Journal of Medicinal Chemistry, 2023)

What was measured:
E. faecium ATCC 700221 = assay: Neutropenic thigh infection mouse model with VanA E. faecium; format: in vivo; conditions: compound 17 4 doses at 100 mg/kg i.p., linezolid 4 doses at 50 mg/kg i.p.
M. tuberculosis H37Ra = format: cell-based, Mycobacterium tuberculosis
[1] = test system: M. bovis BCG Pasteur ATCC 35734; format: cell-based

| Compound | weight loss compared to untreated control mice (E. faecium ATCC 700221) | survival (endpoint: 15% of starting weight lost) (E. faecium ATCC 700221; neutropenic mice, Kaplan–Meier, *P < 0.05 Gehan–Breslow–Wilcoxon test) | MIC, M. tuberculosis H37Ra (M. tuberculosis H37Ra) [µg/mL] | MIC, M. bovis BCG Pasteur ATCC 35734 [1] [µg/mL] |
| --- | --- | --- | --- | --- |
| CC(=O)NC[C@H]1CN(c2ccc(N3CCOCC3)c(F)c2)C(=O)O1 [linezolid] | reduced weight loss | significant survival benefit | – | – |
| complestatin | – | – | >64 | 64 |
